From publication PMC5421785, “Citrullination only infrequently impacts peptide binding to HLA class II MHC” (PLoS ONE, 2017)
Where two headings read alike, the source gives them in different places. Ends that are not written are not given here.

What was measured:
HLA-DRB1*01:01 = target: T1, HLA-DRB1*01:01 (Homo sapiens, UniProt P01903+P01911, A100R/D57E/F55L/F60I/F76Y/I96L/L162R/M171V/P40L/Q125E/R42F/V115G/Y59C); assay: HLA class II peptide binding, inhibition of radiolabeled peptide binding to purified MHC; settings: read-out: DRB1*01:01 binding capacity, WT peptide (IC50 nM)
T1 construct: EBV transformed homozygous cell lines were used as sources of MHC molecules; endogenous in cells; host or cells: EBV transformed homozygous cell lines

HLA-DRB1*04:01 = target: T2, HLA-DRB1*04:01 (Homo sapiens, UniProt P01903+P01911, A100K/A169T/F76Y/I96L/K127E/L162R/M171V/N62H/P40V/Q125Y/R42H/S133A/S149N/S66Y/V115G/V209L/W38E); assay: as above; settings: read-out: DRB1*04:01 binding capacity, WT peptide (IC50 nM)
T2 construct: EBV transformed homozygous cell lines were used as sources of MHC molecules; endogenous in cells; host or cells: EBV transformed homozygous cell lines

[1] = wild-type (unmodified Arg) 15-mer peptide, purified HLA-DRB1*01:01
[2] = wild-type (unmodified Arg) 15-mer peptide, purified HLA-DRB1*04:01

Sequence	IC50 (HLA-DRB1*01:01; [1])	IC50 (HLA-DRB1*04:01; [2])	IC50 (HLA-DRB1*01:01)	IC50 (HLA-DRB1*04:01)
GLPGAPGLRGLPGKD [Collagen 621 WT]	810 nM	> 40000 nM	–	–
GPQGARGQPGVMGFP [Collagen 591 WT]	44 nM	2570 nM	–	–
GPRGERGFPGERGSP [Collagen 696 WT]	11200 nM	> 40000 nM	–	–
GPSGKDGPKGARGDS [Collagen 921 WT]	> 40000 nM	> 40000 nM	–	–
GPTGVTGPKGARGAQ [Collagen 876 WT]	952 nM	> 40000 nM	–	–
KAGEKGLPGAPGLRG [Collagen 616 WT]	363 nM	> 40000 nM	–	–
LAGQRGIVGLPGQRG [Collagen 976 WT]	20 nM	9280 nM	–	–
LGVMQGPMGPMGPRG [Collagen 196 WT]	19 nM	> 40000 nM	–	–
LPGARGLTGRPGDAG [Collagen 556 WT]	851 nM	> 40000 nM	–	–
LVAAVLRCQGQDVQE [Collagen 16 WT]	21 nM	4730 nM	–	–
MIRLGAPQTLVLLTL [Collagen 1 WT]	315 nM	7130 nM	–	–
PGFPGPRGPPGPQGA [Collagen 431 WT]	> 40000 nM	> 40000 nM	–	–
PGLQGMPGERGAAGI [Collagen 746 WT]	14 nM	1050 nM	–	–
PGLRGLPGKDGETGA [Collagen 626 WT]	259 nM	> 40000 nM	–	–
PGPAGPTGKQGDRGE [Collagen 1076 WT]	> 40000 nM	> 40000 nM	–	–
PGQRGERGFPGLPGP [Collagen 986 WT]	743 nM	> 40000 nM	–	–
PPGPQGPAGEQGPRG [Collagen 121 WT]	22400 nM	> 40000 nM	–	–
QDGQRYNDKDVWKPE [Collagen 36 WT]	> 40000 nM	> 40000 nM	–	–
QGPRGLPGTPGTDGP [Collagen 716 WT]	10400 nM	> 40000 nM	–	–
REGSPGADGPPGRDG [Collagen 1036 WT]	> 40000 nM	> 40000 nM	–	–
RGQPGVMGFPGPKGA [Collagen 596 WT]	422 nM	> 40000 nM	–	–

Second part, the sequence after the results:

IC50 (HLA-DRB1*01:01; [1])	IC50 (HLA-DRB1*04:01; [2])	IC50 (HLA-DRB1*01:01)	IC50 (HLA-DRB1*04:01)	Sequence
–	–	1490 nM	21400 nM	IDVDVSKPDLTAALR [Vimentin 256 WT]
6720 nM	> 40000 nM	–	–	LGPREKGPDPLQYMR [Collagen 1226 WT]
–	–	248 nM	> 40000 nM	LLAELEQLKGQGKSR [Vimentin 131 WT]
641 nM	5090 nM	–	–	LPLVDTHSKRTLLIK [Vimentin 431 WT]
86 nM	5590 nM	–	–	MALDIEIATYRKLLE [Vimentin 391 WT]
270 nM	1780 nM	–	–	MARHLREYQDLLNVK [Vimentin 376 WT]
–	–	408 nM	491 nM	MSTRSVSSSSYRRMF [Vimentin 1 WT]
15400 nM	> 40000 nM	–	–	NDALRQAKQESTEYR [Vimentin 306 WT]
–	–	524 nM	884 nM	NDKARVEVERDNLAE [Vimentin 166 WT]
–	–	862 nM	16400 nM	NDRFANYIDKVRFLE [Vimentin 111 WT]
–	–	1840 nM	408 nM	NTLQSFRQDVDNASL [Vimentin 201 WT]
–	–	72 nM	824 nM	NYIDKVRFLEQQNKI [Vimentin 116 WT]
8.7 nM	14100 nM	–	–	PGIDMSAFAGLGPRE [Collagen 1216 WT]
538 nM	6480 nM	–	–	PNFSSLNLRETNLDS [Vimentin 416 WT]
31000 nM	> 40000 nM	–	–	PTGKQGDRGEAGAQG [Collagen 1081 WT]
1500 nM	17000 nM	–	–	QAKQESTEYRRQVQS [Vimentin 311 WT]
–	–	34600 nM	> 40000 nM	QGKSRLGDLYEEEMR [Vimentin 141 WT]
–	–	6560 nM	6010 nM	REEAENTLQSFRQDV [Vimentin 196 WT]
–	–	13800 nM	> 40000 nM	REKLQEEMLQREEAE [Vimentin 186 WT]
2730 nM	9140 nM	–	–	RQVQSLTCEVDALKG [Vimentin 321 WT]
–	–	261 nM	4620 nM	RSSVPGVRLLQDSVD [Vimentin 71 WT]
–	–	11 nM	769 nM	RTYSLGSALRPSTSR [Vimentin 36 WT]
